{"source": "patent US20140162308A1", "about": "“DEVICE AND METHOD FOR I[…] AND COUNTING MICROBES AND DETERMINING ANTIMICROBIAL SENSITIVITY” (Texas State University, priority 2011, published 2014)", "test_system": "E. Coli B", "experiment": "Antimicrobial sensitivity test: resistance signature of the microbial sample after adding the antibiotic", "type": "cell-based", "details": "0.9 mL of 10^3 CFU/mL E. Coli B in LB Broth + 0.1 mL antibiotic, room temperature; slope of control samples remains negative; FIGS. 7A-7D", "description": "FIGS. 7A-7D depict signatures of microbial sample of 0.9 mL of a concentration of 10^3 CFU/mL of two-hour E. Coli B treated with 0.1 mL of antibiotics or antimicrobials and control samples in the absence thereof. What is common to all FIGS. 7A-7D is the slope for signatures with antibiotics or antimicrobials become positive, i.e., the resistance component of total impedance of the microbial sample increases, upon addition of the antibiotic or antimicrobial. The slope of the control samples remains negative.\nIn further detail, a difference in the degree of the slope change for the signature can be observed. […]\nAn overnight bacterial culture of E. coli B with a concentration of around 10^9 cells which had attained room temperature were diluted using LB Broth which had also attained room temperature to a final concentration of 10^3 cells. 0.9 ml of this solution was then placed into one sensor well which was connected to lead #1 of a reader unit. An additional 0.9 ml of the bacteria was placed into a second sensor well which was connected to lead#2 of a reader unit. […]\nAn overnight bacterial culture of E. coli B with a concentration of around 10^9 cells that had attained room temperature were diluted to a final concentration of 10^3 cells. 0.9 ml of this solution was then placed into a first sensor well which was connected to lead #1 of a reader unit. […]"}
{"smiles": "Cc1cc(NS(=O)(=O)c2ccc(N)cc2)no1", "note": "[sulfamethoxazole]", "values": [{"measurement": "slope of the signature (resistance component of total impedance of the microbial sample) upon addition of the antibiotic or antimicrobial", "result": "steeper than for azithromycin"}]}
